Here are results for 25 compounds from patent publication US20030134859A1 (SANKYO COMPANY, LIMITED, priority 2000, published 2003).

Structures can show the parent of a compound that is named as a salt.

For the experiment, the system named is TNF-α production. Description: Inhibitory activity against cytokine (TNF-α) production in LPS-stimulated RAW264.7 cells. The format is cell-based, mouse. As to conditions: Mus musculus, RAW264.7, 15 h, 1 μM test compound, LPS 10 ng/mL. The method in brief: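 Mouse RAW264.7 macrophages (5,000 cells/well) stimulated with 10 ng/mL LPS (final) and treated with test compound at 1 μM final for 15 h at 37 °C. Supernatant mouse TNF-α measured by ELISA; % inhibition = 100−(A−B)/(C−B)×100, using unstimulated and LPS-only controls.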
As to `Cc1cnc(NC(=O)c2cc([N+](=O)[O-])ccc2Cl)s1` [Example 4, N-(5-Methylthiazol-2-yl)-(2-chloro-5-nitrophenyl)carboxamide], the inhibition – broadly, the drop in the measured response relative to a control, in per cent – at 1 µM is 18.5%. For `CC(C)(C)c1cc(NC(=O)c2cc([N+](=O)[O-])ccc2Cl)cc(C(C)(C)C)c1O` [Example 29, N-(3,5-Di-t-butyl-4-hydroxyphenyl)-(2-chloro-5-nitrophenyl)carboxamide], at 1 µM the inhibition was 22.9%. Regarding `Cc1ccccc1-c1csc(NC(=O)c2cc([N+](=O)[O-])ccc2Cl)n1` [Example 39, N-[4-(2-Methylphenyl)thiazol-2-yl]-(2-chloro-5-nitrophenyl)carboxamide], testing at 1 µM gave an inhibition of 29.8%. Take `Cc1cccc(-c2csc(NC(=O)c3cc([N+](=O)[O-])ccc3Cl)n2)c1` [Example 40, N-[4-(3-Methylphenyl)thiazol-2-yl)-(2-chloro-5-nitrophenyl)carboxamide]: 1 µM produced 27.1% inhibition. The same measure for `O=C(Nc1nc(-c2cccc3ccccc23)cs1)c1cc([N+](=O)[O-])ccc1Cl` [Example 41, N-[4-(1-Naphthyl)thiazol-2-yl]-(2-chloro-5-nitrophenyl)carboxamide]: 30%; for `CCc1ccc(-c2csc(NC(=O)c3cc([N+](=O)[O-])ccc3Cl)n2)cc1` [Example 44, N-[4-(4-Ethylphenyl)thiazol-2-yl]-(2-chloro-5-nitrophenyl)carboxamide]: 18%; for `Cc1ccc(-c2nc(NC(=O)c3cc([N+](=O)[O-])ccc3Cl)sc2C)cc1Cl` [Example 46, N-[4-(3-Chloro-4-methylphenyl)-5-methylthiazol-2-yl]-(2-chloro-5-nitrophenyl)carboxamide]: 30.7%. Then `Cc1nc(NC(=O)c2cc([N+](=O)[O-])ccc2Cl)sc1C` [Example 47], with 16.7%.

In turn, `Cc1ccc(NC(=O)c2cc([N+](=O)[O-])ccc2Cl)nc1` [Example 52, N-(5-Methylpyridin-2-yl)-(2-chloro-5-nitrophenyl)carboxamide] had an inhibition at 1 µM of 16.2%. `O=C(Nc1ccc2c3c(cccc13)CC2)c1cc([N+](=O)[O-])ccc1Cl` [Example 54, N-(Acenaphthen-5-yl)-(2-chloro-5-nitrophenyl)carboxamide] gave an inhibition at 1 µM of 16.8%. Regarding `O=C(Nc1c(Cl)ncnc1Cl)c1cc([N+](=O)[O-])ccc1Cl` [Example 81, N-(4,6-Dichloropyrimidin-5-yl)-(2-chloro-5-nitrophenyl)carboxamide], the inhibition at 1 µM was determined as 32%. `O=C(Nc1nc(-c2ccc(F)c(F)c2)cs1)c1cc([N+](=O)[O-])ccc1Cl` [Example 111, N-[4-(3,4-Difluorophenyl)thiazol-2-yl]-(2-chloro-5-nitrophenyl)carboxamide] came in with an inhibition at 1 µM of 28.7%. Then `CCCCCCN(CCCCCC)c1ccc(NC(=O)c2cc([N+](=O)[O-])ccc2Cl)cc1` [Example 138, N-[4-(N,N-di-n-Hexylamino)phenyl]-(2-chloro-5-nitrophenyl)carboxamide], with 17.8%; and `CC(C)(C)c1cc(C(=O)Nc2ccc(NC(=O)c3cc([N+](=O)[O-])ccc3Cl)cc2)cc(C(C)(C)C)c1O` [Example 157, N-[4-[(3,5-di-tert-Butyl-4-hydroxybenzoyl)amino]phenyl]-(2-chloro-5-nitrophenyl)carboxamide], with 38.6%; and `CCCN(CC)c1ccc(NC(=O)c2cc([N+](=O)[O-])ccc2Cl)cc1` [Example 189, N-[4-(N-Ethyl-N-propylamino)phenyl]-(2-chloro-5-nitrophenyl)carboxamide], with 16.3%.

For the compound `CCCCCCNc1ccc(-c2ccc(NC(=O)c3cc([N+](=O)[O-])ccc3Cl)cc2)cc1` [Example 195, N-[4-[4-(N-Hexylamino)phenyl]phenyl]-(2-chloro-5-nitrophenyl)carboxamide], the inhibition at 1 µM amounted to 16.1%. `CCCCCCN(C)c1ccc(-c2ccc(NC(=O)c3cc([N+](=O)[O-])ccc3Cl)cc2)cc1` [Example 196, N-[4-[4-(N-Hexyl-N-methylamino)phenyl]phenyl]-(2-chloro-5-nitrophenyl)carboxamide] showed an inhibition at 1 µM of 15.3%. Then `CCCCCCN(CC)c1ccc(-c2ccc(NC(=O)c3cc([N+](=O)[O-])ccc3Cl)cc2)cc1` [Example 197, N-[4-[4-(N-Ethyl-N-hexylamino)phenyl]phenyl]-(2-chloro-5-nitrophenyl)carboxamide], with 21.6%; and `CCCCCCCCNc1ccc(-c2ccc(NC(=O)c3cc([N+](=O)[O-])ccc3Cl)cc2)cc1` [Example 219, N-[4-[4-(N-Octylamino)phenyl]phenyl]-(2-chloro-5-nitrophenyl)carboxamide], with 21.7%.

`CCCCCCCCN(CCCCCC)c1ccc(-c2ccc(NC(=O)c3cc([N+](=O)[O-])ccc3Cl)cc2)cc1` [Example 220, N-[4-[4-(N-Hexyl-N-octylamino)phenyl]phenyl]-(2-chloro-5-nitrophenyl)carboxamide mono-hydrochloride] registered an inhibition at 1 µM of 16.3%.

Turning to `CCCCCCCCN(CCCC)c1ccc(-c2ccc(NC(=O)c3cc([N+](=O)[O-])ccc3Cl)cc2)cc1.Cl` [Example 223, N-[4-[4-(N-Butyl-N-octylamino)phenyl]phenyl]-(2-chloro-5-nitrophenyl)carboxamide mono-hydrochloride], 1 µM produced 28.2% inhibition. `CCCCCCCCN(CCC)c1ccc(-c2ccc(NC(=O)c3cc([N+](=O)[O-])ccc3Cl)cc2)cc1` [Example 224, N-[4-[4-(N-Octyl-N-propylamino)phenyl]phenyl]-(2-chloro-5-nitrophenyl)carboxamide] displayed an inhibition at 1 µM of 22.4%. The same measure for `CC(C)(C)OC(=O)Nc1cccc(-c2csc(NC(=O)c3cc([N+](=O)[O-])ccc3Cl)n2)c1` [Example 234, N-[4-(3-tert-Butoxycarbonylaminophenyl)thiazol-2-yl]-(2-chloro-5-nitrophenyl)carboxamide]: 32.5%; for `CS(=O)(=O)N(c1ccc(-c2ccc(NC(=O)c3cc([N+](=O)[O-])ccc3Cl)cc2)cc1)S(C)(=O)=O` [Example 235, N-[4-[4-(N,N-Dimethanesulfonylamino)phenyl]phenyl]-(2-chloro-5-nitrophenyl)carboxamide]: 40.2%; for `O=C(Nc1ccc(CCNC(=S)Nc2cccnc2)cc1)c1cc([N+](=O)[O-])ccc1Cl` [Example 273, N-[4-[2-(Pyridin-3-yl)aminothiocarbonylaminoethyl]phenyl]-(2-chloro-5-nitrophenyl)carboxamide]: 19.9%.
